# Measured values taken from the supplement of paper PMC10307832.
# Experiments:
# Test in all cases: relative viability (nuclei count vs DMSO), 5 days (fraction); higher = more cells survive
# [1] = compound: CC1=CC=C(C=C1)C(=O)CN2C3=C(CCCC3)SC2=N [Pifithrin_alpha] + Cc1nc(NC(=O)N2CCC[C@H]2C(N)=O)sc1-c1ccnc(C(C)(C)C(F)(F)F)c1 [Alpelisib] (partner 2 µM)
# In short: (§1)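 The day after seeding in 1536-well plates, lung cancer cell lines were treated by pin tool with a single drug, or with a fixed anchor-drug dose together with five library-drug doses (not always all listed) in √10 steps. After 5 days, a combined fix-and-stain solution (final 0.05% Triton X-100, 1% formaldehyde, 1 ug/ml Hoechst) was added. Nuclei counted on 4× images gave relative viability as treated counts over vehicle counts, reported as the median of duplicate plates.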
# [2] = compound: Nc1nc(Nc2ccc3c(c2)CC[C@@H](N2CCCC2)CC3)nn1-c1cc2c(nn1)-c1ccccc1CCC2 [Bemcentinib] + O=C(CCCCCCC(=O)Nc1ccccc1)NO [Vorinostat] (partner 1 µM)
# In short: as §1
# [3] = compound: Nc1nc(Nc2ccc3c(c2)CC[C@@H](N2CCCC2)CC3)nn1-c1cc2c(nn1)-c1ccccc1CCC2 [Bemcentinib] + Cc1nc(Nc2ncc(C(=O)Nc3c(C)cccc3Cl)s2)cc(N2CCN(CCO)CC2)n1 [Dasatinib] (partner 0.075 µM)
# In short: as §1
# [4] = compound: Nc1nc(Nc2ccc3c(c2)CC[C@@H](N2CCCC2)CC3)nn1-c1cc2c(nn1)-c1ccccc1CCC2 [Bemcentinib] + CS(=O)(=O)CCNCc1ccc(-c2ccc3ncnc(Nc4ccc(OCc5cccc(F)c5)c(Cl)c4)c3c2)o1 [Lapatinib] (partner 2 µM)
# In short: as §1
cell line,measurement,setting,value
NCI-H650,relative viability,[1]; first compound 3.162 µM,1.12
same,relative viability,[1]; first compound 10 µM,1.13
same,relative viability,[1]; first compound 31.62 µM,0.755
same,relative viability,[1]; first compound 100 µM,1.09
same,relative viability,[2]; first compound 0.04 µM,0.353
same,relative viability,[2]; first compound 0.1265 µM,0.442
same,relative viability,[2]; first compound 0.4 µM,0.378
same,relative viability,[2]; first compound 1.265 µM,0.374
same,relative viability,[2]; first compound 4 µM,0.418
same,relative viability,[3]; first compound 0.04 µM,0.424
same,relative viability,[3]; first compound 0.1265 µM,0.514
same,relative viability,[3]; first compound 0.4 µM,0.474
same,relative viability,[3]; first compound 1.265 µM,0.43
same,relative viability,[3]; first compound 4 µM,0.4
same,relative viability,[4]; first compound 0.04 µM,0.885
same,relative viability,[4]; first compound 0.1265 µM,1.02
same,relative viability,[4]; first compound 0.4 µM,0.906
same,relative viability,[4]; first compound 1.265 µM,0.759
same,relative viability,[4]; first compound 4 µM,0.775
